Data on 2 compounds can be found in patent US20200239530A1, “COMPOUNDS AND METHODS OF MODULATING PROTEIN DEGRADATION” (Vividion Therapeutics, Inc., priority 2017, published 2020).

The target of test [1] is T1, RNF7 RING-box protein 2 (Homo sapiens, UniProt Q9UBF6).
T1 construct: Cells were resuspended in cold PBS on ice and sonicated with a probe sonicator to achieve lysis; endogenous in cells
T1 sequence (Q9UBF6 1-113): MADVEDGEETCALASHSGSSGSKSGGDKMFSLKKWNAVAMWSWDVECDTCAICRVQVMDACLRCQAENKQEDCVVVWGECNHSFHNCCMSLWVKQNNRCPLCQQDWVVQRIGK
The test can be described thus: Cysteine liganding, probe competition. The test is classed as binding. The gist of the method: (§1)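 Lysates from probe-sonicated cells in PBS (5 mg/ml proteome) were exposed to compound for 1 hr at 25° C, then labelled with desthiobiotin iodoacetamide probe (10 mM stock) for 1 hr at 25° C. Probe-tagged peptides were streptavidin-enriched after trypsin digestion.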

Test [2] deals with T2, RPN1 Dolichyl-diphosphooligosaccharide--protein glycosy (Homo sapiens, UniProt P04843).
T2 construct: Cells were resuspended in cold PBS on ice and sonicated with a probe sonicator to achieve lysis; endogenous in cells
T2 sequence (P04843 24-607): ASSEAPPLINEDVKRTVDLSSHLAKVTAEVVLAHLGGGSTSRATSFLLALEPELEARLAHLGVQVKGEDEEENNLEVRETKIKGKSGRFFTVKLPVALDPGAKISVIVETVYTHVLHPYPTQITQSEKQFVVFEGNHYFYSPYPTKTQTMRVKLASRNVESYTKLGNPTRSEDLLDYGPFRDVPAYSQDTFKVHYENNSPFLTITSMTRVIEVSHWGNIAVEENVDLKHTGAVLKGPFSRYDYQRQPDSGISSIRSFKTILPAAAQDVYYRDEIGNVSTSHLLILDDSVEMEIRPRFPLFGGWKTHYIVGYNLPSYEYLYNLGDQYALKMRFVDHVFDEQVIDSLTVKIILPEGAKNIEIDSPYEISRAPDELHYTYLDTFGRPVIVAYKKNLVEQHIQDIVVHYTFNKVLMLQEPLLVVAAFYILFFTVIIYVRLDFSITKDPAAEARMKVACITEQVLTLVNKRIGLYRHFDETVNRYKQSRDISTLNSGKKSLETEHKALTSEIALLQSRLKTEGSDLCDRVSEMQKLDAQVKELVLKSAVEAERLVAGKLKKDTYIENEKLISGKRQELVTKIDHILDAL
Kind of test: Cysteine liganding, probe competition. The test is classed as binding. The method in brief: as §1

For the compound `COc1ccc2c(c1)CCCN2C(=O)CCl` [KB02], the Liganded result was “YES” in test [1] (RNF7 Res# 88, uniprot Q9UBF6) and “YES” in test [2] (RPN1 Res# 477, uniprot P04843).
Take `O=C(CCl)Nc1cc(C(F)(F)F)cc(C(F)(F)F)c1` [KBO3]: in test [1] (uniprot Q9UBF6), the “100 Max” value stood at 20.4 and the 100 ave was 20.4. Besides, in test [2] (uniprot P04843), the “100 Max” value was 9.24, the 100 ave was −5.035 and the 500 ave came to 23.85. Moreover, the “500 Max” value in test [2] (uniprot P04843, in % (unit assumed)) is 28.71.
